The subject of experiment [1] is B-cell lymphoblastic leukemia. Put plainly: Doxycycline treatment of tet-BCL-2/MMTV-tTA/Eμ-myc leukemic mice. Format: in vivo, mouse. Conditions: doxycycline 500 μg/ml in drinking water, from 4-5 weeks of age. An excerpt: Using standard recombinant DNA technology, the tet-BCL-2 allele was targeted to the DNA methyltransferase 1 locus (FIG. 10). By crossing the new mouse line with the MMTV-tTA line (Jackson Labs) mice were generated which conditionally overexpress BCL-2 in epithelial cells and in B-lineage lymphocytes. Administration of doxycycline successfully suppresses BCL-2 overexpression in these animals. When these mice are crossed with mice expressing myc in the B-lymphocyte lineage (Eμ-myc mice, Jackson Labs) mice which uniformly have B-cell lymphoblastic leukemia were obtained.
To examine the effect of removing BCL-2 expression form the leukemia cells, the effects of doxycycline treatment in a cohort of 28 mice were examined. By genotype, each of the 28 mice contained the tet-BCL-2, the MMTV-tTA, and the Eμ-myc alleles. […] At 4-5 weeks of age, half were treated with doxycycline (500 μg/ml) in drinking water, and half were left untreated. The WBC was measured by hemocytometer using 2 μl blood from tail which was lysed with 0.3% saponin and stained with Hoechst 33258.

In experiment [2] the target is T1, GST-BCL-2 (Homo sapiens, UniProt P10415).
T1 construct: a GST-BCL-2 fusion protein lacking the C-terminal transmembrane domain was utilized; made in house; host or cells: E. coli BL21 DE3
The experiment in a line: Fluorescence polarization binding of fluoresceinated BH3 peptides to GST-BCL-2. The conditions noted are these: Kd (nM), BCL-2 Binding, 25 nM fluoresceinated peptide, GST-BCL-2 titration, 37° C. The text has this: (§1) To determine Kd for peptide binding to BCL-2, a GST-BCL-2 fusion protein lacking the C-terminal transmembrane domain was utilized. Peptides were synthesized with a fluorescein amino-terminus using an AHA linker. […] An increase in fluorescence polarization measured on a Perkin-Elmer LS 50B luminescence spectrophotometer was quantitated to calculate binding. A non-linear fit to a sigmoidal dose-response curve utilized the program Origin 6.0 to determine Kd. […] Data were fitted to a sigmoidal curve as above, and IC50 determined.
(§2) GST-BCL-2δC21 fusion proteins were induced in BL21 DE3 by 0.1 mM IPTG. The bacterial pellets were resuspended in lysis buffer (1 mg/ml lysozyme/1% Triton X-100/0.1 mg/ml PMSF/2 μg/ml aprotinin/2 μg/ml leupeptine/1 μg/ml pepstatin A in PBS) and sonicated. After centrifugation at 20,000×g for 20 min, the supernatant was applied to glutathione-agarose beads (Sigma). The beads were washed with PBS and treated with 50 mM glutathione/50 mM TrisHCl, pH8.0 to elute protein. Eluate was dialyzed against binding buffer and concentrated using Amicon centrifugal concentrating devices.
Background: In fluorescence polarisation assays a small probe gives low polarisation when free and higher when bound to something large.

Experiment [3] concerns the target MCL-1 (Homo sapiens, UniProt Q07820). The experiment in a line: MCL-1 binding.
In experiment [4] the target is T1, GST-BCL-2. Put plainly: BH3 peptide displacement from GST-BCL-2 by fluorescence polarization. The experiment is classed as binding.
Text: as §1, §2

Ends that are not written are not given here. Bounds are passed on as bounds.

One may read the Kd as the free concentration of one partner at which half of the binding sites on the other are occupied at equilibrium, for simple one-to-one binding. A higher Kd goes with a looser complex. As usually defined, the IC50 is the concentration needed to halve the response being measured. A high value points to weaker potency in that assay.

T1 sequence (P10415 1-218 limits assumed): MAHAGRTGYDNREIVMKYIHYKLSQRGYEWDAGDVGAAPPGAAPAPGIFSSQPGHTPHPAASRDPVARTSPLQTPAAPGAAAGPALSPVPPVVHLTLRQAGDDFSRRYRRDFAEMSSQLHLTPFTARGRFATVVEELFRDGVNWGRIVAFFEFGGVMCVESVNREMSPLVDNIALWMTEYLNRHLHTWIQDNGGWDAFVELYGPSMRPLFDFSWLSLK
Chain of MCL-1 (Q07820 whole entry, species assumed): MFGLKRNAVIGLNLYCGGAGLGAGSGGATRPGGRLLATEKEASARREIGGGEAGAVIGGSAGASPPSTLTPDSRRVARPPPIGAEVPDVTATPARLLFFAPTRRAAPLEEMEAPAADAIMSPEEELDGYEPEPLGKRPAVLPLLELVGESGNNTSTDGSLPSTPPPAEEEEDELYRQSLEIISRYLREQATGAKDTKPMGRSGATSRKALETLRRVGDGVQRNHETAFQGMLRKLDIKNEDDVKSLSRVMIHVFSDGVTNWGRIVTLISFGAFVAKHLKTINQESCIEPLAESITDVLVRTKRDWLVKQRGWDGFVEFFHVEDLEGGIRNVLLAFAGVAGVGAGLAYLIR

As for `C[C@H]1c2cccc(O)c2C(=O)C2=C(O)[C@]3(O)C(=O)C(C(N)=O)=C(O)[C@@H](N(C)C)[C@@H]3[C@@H](O)[C@@H]21` [doxycycline], in experiment [1], the “decrease in WBC” value is recorded as 1-2 log.
In the case of EDIIRNIARHAAQVGASMDR [BIDBH3 mut], the figures for the Kd in experiment [2] and in experiment [3] were > 1000 nM and > 2600 nM, respectively. The half-inhibitory concentration (IC50) in experiment [4] is > 30000 nM.
